Measurements taken from patent US12110294B2, “CD73 compounds” (Gilead Sciences, Inc., priority 2020, dated 2024).

Target: T1, CD73 activity in MDA-MB-231-GFP cells (Homo sapiens, UniProt P21589)
T1 construct: endogenous in cells; host or cells: MDA-MB-231-GFP cells
T1 sequence (P21589 27-549): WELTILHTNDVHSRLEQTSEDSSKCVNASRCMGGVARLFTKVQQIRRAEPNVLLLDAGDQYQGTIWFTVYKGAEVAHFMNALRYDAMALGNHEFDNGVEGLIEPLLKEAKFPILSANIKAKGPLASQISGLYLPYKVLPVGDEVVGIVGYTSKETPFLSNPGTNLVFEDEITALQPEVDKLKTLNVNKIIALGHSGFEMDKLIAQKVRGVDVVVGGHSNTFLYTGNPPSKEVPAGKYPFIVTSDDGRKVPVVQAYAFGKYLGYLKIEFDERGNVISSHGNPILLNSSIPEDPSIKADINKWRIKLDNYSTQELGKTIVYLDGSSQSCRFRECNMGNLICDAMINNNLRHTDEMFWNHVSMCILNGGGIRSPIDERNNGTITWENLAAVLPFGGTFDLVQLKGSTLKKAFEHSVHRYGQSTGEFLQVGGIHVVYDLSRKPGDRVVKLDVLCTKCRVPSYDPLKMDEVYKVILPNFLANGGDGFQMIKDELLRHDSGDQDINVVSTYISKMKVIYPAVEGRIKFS
Assay: MDA-MB-231 Cell Based CD73 Activity Assay (DMEM)
Conditions: 3000 cells per well, DMEM medium with 10% human plasma, overnight compound treatment, AMP 200 uM
Experimental: MDA-MB-231 Cell Based CD73 Activity Assay (DMEM) MDA-MB-231-GFP cells were seeded in 384-well plates (Greiner 781946) at a density of 3000 cells per well in 50 μL of DMEM medium with 10% HP (human plasma). Cells were plated into assay plate with compounds pre-spotted, for an overnight compound treatment. 50 uL of 400 uM AMP (final concentration will be 200 uM) was added using Bio-tek dispenser. Plates were incubated for 100 mins. […] The samples were analyzed using Rapid fire.

SMILES	EC50
CNC(=O)c1ccc([C@H]2C[C@@H]2c2cc(-c3c[nH]c(=O)[nH]c3=O)nn3ccnc23)cc1 (racemic) [Example 285, 4-((2S,2S)-2-(6-(2,4-dioxo-1,2,3,4-tetrahydropyrimidin-5-yl)imidazo[1,2-b]pyridazin-8-yl)cyclopropyl)-N-methylbenzamide]	2.99 nM
O=c1[nH]cc(-c2cc([C@H]3C[C@@H]3c3ncc(C(F)(F)F)cn3)c3nccn3n2)c(=O)[nH]1 (racemic) [Example 377, 5-(8-((1S,2S)-2-(5-(trifluoromethyl)pyrimidin-2-yl)cyclopropyl)imidazo[1,2-b]pyridazin-6-yl)pyrimidine-2,4(1H,3H)-dione]	22.6 nM
O=c1[nH]cc(-c2cc(N3CCC(CC(F)F)C3)c3nccn3n2)c(=O)[nH]1 (racemic) [Example 453, 5-(8-(3-(2,2-difluoroethyl)pyrrolidin-1-yl)imidazo[1,2-b]pyridazin-6-yl)pyrimidine-2,4(1H,3H)-dione]	112 nM
O=C1N(CC(F)(F)F)c2cc([C@H]3C[C@@H]3c3cc(-c4c[nH]c(=O)[nH]c4=O)nn4c(Cl)cnc34)ccc2C12CC2 (single isomer, unassigned) [Example 740]	0.28 nM
CC1CN(C(=O)c2cccc([C@H]3C[C@@H]3c3cc(-c4c[nH]c(=O)[nH]c4=O)nn4ccnc34)c2)C1 (racemic) [Example 295, 5-(8-((1S,2S)-2-(3-(3-methylazetidine-1-carbonyl)phenyl)cyclopropyl)imidazo[1,2-b]pyridazin-6-yl)pyrimidine-2,4(1H,3H)-dione]	1.97 nM
Cn1ncc2ccc([C@H]3C[C@@H]3c3cc(-c4c[nH]c(=O)[nH]c4=O)nn4ccnc34)cc21 (racemic) [Example 326, 5-(8-((1S,2S)-2-(1-methyl-1H-indazol-6-yl)cyclopropyl)imidazo[1,2-b]pyridazin-6-yl)pyrimidine-2,4(1H,3H)-dione]	2.66 nM
CC1(C)CN(C(=O)c2ccc([C@H]3C[C@@H]3c3cc(-c4c[nH]c(=O)[nH]c4=O)nn4ccnc34)cc2)C1 (racemic) [Example 293, 5-(8-((2S,2S)-2-(4-(3,3-dimethylazetidine-1-carbonyl)phenyl)cyclopropyl)imidazo[1,2-b]pyridazin-6-yl)pyrimidine-2,4(1H,3H)-dione]	8.8 nM
O=c1[nH]cc(-c2cc([C@H]3C[C@@H]3c3c(F)ccc(F)c3F)c3nccn3n2)c(=O)[nH]1 (racemic) [Example 468, 5-(8-((2S,2S)-2-(2,3,6-trifluorophenyl)cyclopropyl)imidazo[1,2-b]pyridazin-6-yl)pyrimidine-2,4(1H,3H)-dione]	13.3 nM
O=c1[nH]cc(-c2cc(N3CCC(CC(F)(F)F)C3)c3nccn3n2)c(=O)[nH]1 (racemic) [Example 452, 5-(8-(3-(2,2,2-trifluoroethyl)pyrrolidin-1-yl)imidazo[1,2-b]pyridazin-6-yl)pyrimidine-2,4(1H,3H)-dione]	94.8 nM
O=c1[nH]cc(-c2cc([C@H]3C[C@@H]3c3ccc(C(F)(F)F)cc3F)c3nccn3n2)c(=O)[nH]1 (racemic) [Example 165, 5-(8-((1S,2S)-2-(2-fluoro-4-(trifluoromethyl)phenyl)cyclopropyl)imidazo[1,2-b]pyridazin-6-yl)pyrimidine-2,4(1H,3H)-dione]	38.7 nM
O=c1[nH]cc(-c2cc([C@H]3C[C@@H]3c3ccncc3F)c3nccn3n2)c(=O)[nH]1 (racemic) [Example 161, 5-(8-((1S,2S)-2-(3-fluoropyridin-4-yl)cyclopropyl)imidazo[1,2-b]pyridazin-6-yl)pyrimidine-2,4(1H,3H)-dione]	11 nM
NC(=O)c1cccc([C@H]2C[C@@H]2c2cc(-c3c[nH]c(=O)[nH]c3=O)nn3ccnc23)c1 (racemic) [Example 284, 3-((1S,2S)-2-(6-(2,4-dioxo-1,2,3,4-tetrahydropyrimidin-5-yl)imidazo[1,2-b]pyridazin-8-yl)cyclopropyl)benzamide]	3.49 nM
